Data taken from patent US5637690A, “Sulfate of n-acetylneuraminic acid homopolymer and processes for making and using the same” (Marukin Shoyu Co., Ltd., priority 1993, dated 1997).

How the values were obtained:
HIV = experiment: Anti-HIV activity: HIV antigen positive MT-4 cells by immunofluorescence (Pharmacological Tests 1 and 3); type: cell-based
Method: (§1) A medium in which MT-4 cell [Miyoshi I. et al., Gann Monogr., 28, 219-228 (1982)] was included in a proportion of 2×10^5 cell/ml medium (RPMI-1640+10%FCS) was prepared. To each of 500 μl portion of the medium were added sulfated colominic acid obtained from examples 1 and 2 at a concentration shown in table 1. After two hours addition of the esters, HIV was infected to cells in each well in the proportion of 5×10^3 PFU/well. After 4 days from HIV infection, smear of MT-4 cell was prepared to detect HIV antigen positive cells by immunofluorescence (Harada S. et al., Science, 229, 563-566 (1985); Takeuchi Y., et al., Jpn. J. Cancer Res. (Gann), 78, 11-15 (1987)).
An anti-HIV activity of colominic acid which is a starting material in place of sulfated colominic acid was determined in the same manner as above.
(§2) In tables 1 and 3, a sample having a concentration of sulfated colominic acid of zero was regarded as control. In table 2, "--" indicates no toxicity.
(§3) In order to determine the minimum number of monomer unit of N-acetylneuraminic acid homopolymer, sulfate esters of formula (I) in which n is 1-6 were produced. A cytotoxicity and an anti-HIV activity of each sulfate ester were determined in the same manner as pharmacological tests 1 and 2.

MT-4 cell = experiment: Cytotoxicity on MT-4 cells (Pharmacological Tests 1, 2 and 3); type: cell-based; set-up: key to Toxicity: --: no cytotoxicity or no anti-HIV activity; key to Cytotoxicity: --: no toxicity; details: for Cytotoxicity: Table 2; for Toxicity: Table 4
Method: as §1, §2
A cytotoxicity of sulfated colominic acid was assayed in the same manner as Pharmacological Test 1. Specifically, after MT-4 cell prepared at a concentration of 1×10^5 cell/ml was cultured for 4 days in the presence of a variety of concentrations of sulfated colominic acid, the number of cells was counted. Cytotoxicity was evaluated by calculating a cell survival ratio in each final concentration of sulfated colominic acid taking as 100% the cell survival ratio of control, in which final concentration of sulfated colominic acid is zero.
as §3

In the case of colominic acid [reference compound], the “anti-HIV activity (in words)” value (HIV; Table 2, 1-100 μg/ml) is reported as “does not have an anti-HIV activity”, the “Cell infection ratio” value (HIV; Table 2, final concentration 1 μg/ml) is reported as > 95% and the “Cell infection ratio” value (HIV; Table 2, final concentration 3 μg/ml) is reported as > 95%. For the same substance, the “Cell infection ratio” value (HIV; Table 2, final concentration 10 μg/ml) was > 95%, the “Cell infection ratio” value (HIV; Table 2, final concentration 30 μg/ml) was > 95% and the “Cell infection ratio” value (HIV; Table 2, final concentration 100 μg/ml) was > 95%. The Cytotoxicity (MT-4 cell; final concentration 1 μg/ml) was “--”, the Cytotoxicity (MT-4 cell; final concentration 3 μg/ml) was “--” and the Cytotoxicity (MT-4 cell; final concentration 10 μg/ml) was “--”. For the same substance, the Cytotoxicity (MT-4 cell; final concentration 30 μg/ml) was “--” and the Cytotoxicity (MT-4 cell; final concentration 100 μg/ml) was “--”.
“sulfate ester of N-acetylneuraminic acid hexamer [DP-6-S]” was tested, and the IC50 (HIV; Table 4, anti-HIV, MT-4 cells) was 20 µg/mL, the Cell infection ratio (HIV; Table 4, final concentration 0.1 μg/ml) was > 95% and the Cell infection ratio (HIV; Table 4, final concentration 0.3 μg/ml) was > 95%. For the same substance, the Cell infection ratio (HIV; Table 4, final concentration 1 μg/ml) was > 95%, the Cell infection ratio (HIV; Table 4, final concentration 3 μg/ml) was > 95% and the Cell infection ratio (HIV; Table 4, final concentration 10 μg/ml) was 80%. For the same substance, the Cell infection ratio (HIV; Table 4, final concentration 30 μg/ml) was 30%, the Cell infection ratio (HIV; Table 4, final concentration 100 μg/ml) was < 5% and the Toxicity (MT-4 cell; final concentration 0.1 μg/ml) was “--”. For the same substance, the Toxicity (MT-4 cell; final concentration 0.3 μg/ml) was “--”, the Toxicity (MT-4 cell; final concentration 1 μg/ml) was “--” and the Toxicity (MT-4 cell; final concentration 3 μg/ml) was “--”. The Toxicity (MT-4 cell; final concentration 10 μg/ml) was “--”, the Toxicity (MT-4 cell; final concentration 30 μg/ml) was “--” and the Toxicity (MT-4 cell; final concentration 100 μg/ml) was “--”.
